Measurements: patent US8969375B2, “CDK9 kinase inhibitors” (AbbVie Inc., priority 2013, dated 2015)

How the values were obtained:
[1] = biological target: T1, CDK9/Cyclin T1 (Homo sapiens, UniProt P50750); assay: CDK9 enzyme activity, LANCE ULight TR-FRET kinase assay; type: biochemical; conditions: 1000 μM ATP, 4 nM CDK9/Cyclin T1, 30 minutes
T1 construct: purchased Carna Biosciences 04-110
Experimental: CDK9 enzyme activities were measured using LANCE ULight TR-FRET kinase assay reagents (PerkinElmer, Waltham, Mass.). Compounds were directly added in 100% DMSO to white low volume assay plates (Perkin Elmer Proxiplate 6008289) using a Labcyte Echo acoustic dispenser. Assay reagents in serine/threonine kinase assay buffer containing 20 mM HEPES, 10 mM MgCl2, 100 mM Na3VO4, and 0.0075% Triton X-100. were added for final reaction mixture concentrations of 1000 μM ATP, 100 nM U-light MBP peptide (Perkin Elmer TRF0109M) and reaction initiated with 4 nM CDK9/Cyclin T1 (Carna Biosciences 04-110). The kinase reaction was carried out for 30 minutes before addition of stopping buffer to a final of 20 mM EDTA and 0.5 nM of LANCE Ultra Europium anti-phospho-MBP antibody (PerkinElmer TRF0201M) in LANCE detection buffer (PerkinElmer CR97-100). The reaction was equilibrated for 1 hour and the signal read in the Perkin Elmer Envision in TR-FRET mode (excitation at 320 nm and emission at 615/665 nm).

[2] = test system: H929 cells; assay: Cell viability assay (Cell TiterGlo), H929 cells; type: cell-based, human; conditions: Homo sapiens, NCI-H929, 24 hours
Experimental: Cell viability assays were performed using A431 or H929 cells. A431 cells were seeded in 96-well plates at 10,000 cells/well, and after overnight incubation, treated with compounds at 2-times the final concentration to result in a dose response of 3-fold dilutions from 10 μM to 0.0005 μM (50 μL/well, 0.1% final DMSO concentration). H929 cells were seeded in 96-well plates at 10,000 cells/well and treated immediately with compounds as described above. After 24 hours at 37° C., cell viability was measured using Cell TiterGlo reagent (Promega) with a luminescence reader. Alternately, cell viability assays were performed in 384-well format. A431 cells were seeded in 384-well plates at 2500 cells/well and, after overnight incubation, treated with compounds in a dose response of 3-fold dilutions from 10 μM to 0.0005 μM ([…], 0.1% final DMSO concentration). For the H929 viability assay, […] of the compounds was dispensed into 384-well plates in a dose response as described above and cells were immediately seeded in 384-well plates at 2500 cells/well. After 24 hours at […], cell viability was measured using Cell TiterGlo reagent (Promega) with a luminescence reader.

T1 sequence (P50750 whole entry): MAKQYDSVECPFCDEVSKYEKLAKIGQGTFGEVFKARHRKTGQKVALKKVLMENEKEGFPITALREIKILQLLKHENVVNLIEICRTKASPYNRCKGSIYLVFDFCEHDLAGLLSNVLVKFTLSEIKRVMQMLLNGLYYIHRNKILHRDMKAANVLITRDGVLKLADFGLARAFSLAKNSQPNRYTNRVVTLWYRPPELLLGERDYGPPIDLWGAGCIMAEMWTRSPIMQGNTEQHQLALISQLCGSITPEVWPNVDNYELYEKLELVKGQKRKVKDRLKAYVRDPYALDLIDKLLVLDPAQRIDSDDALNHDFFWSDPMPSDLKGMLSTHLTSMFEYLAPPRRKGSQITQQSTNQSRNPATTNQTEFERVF
T1 sequence (O60563 whole entry partner): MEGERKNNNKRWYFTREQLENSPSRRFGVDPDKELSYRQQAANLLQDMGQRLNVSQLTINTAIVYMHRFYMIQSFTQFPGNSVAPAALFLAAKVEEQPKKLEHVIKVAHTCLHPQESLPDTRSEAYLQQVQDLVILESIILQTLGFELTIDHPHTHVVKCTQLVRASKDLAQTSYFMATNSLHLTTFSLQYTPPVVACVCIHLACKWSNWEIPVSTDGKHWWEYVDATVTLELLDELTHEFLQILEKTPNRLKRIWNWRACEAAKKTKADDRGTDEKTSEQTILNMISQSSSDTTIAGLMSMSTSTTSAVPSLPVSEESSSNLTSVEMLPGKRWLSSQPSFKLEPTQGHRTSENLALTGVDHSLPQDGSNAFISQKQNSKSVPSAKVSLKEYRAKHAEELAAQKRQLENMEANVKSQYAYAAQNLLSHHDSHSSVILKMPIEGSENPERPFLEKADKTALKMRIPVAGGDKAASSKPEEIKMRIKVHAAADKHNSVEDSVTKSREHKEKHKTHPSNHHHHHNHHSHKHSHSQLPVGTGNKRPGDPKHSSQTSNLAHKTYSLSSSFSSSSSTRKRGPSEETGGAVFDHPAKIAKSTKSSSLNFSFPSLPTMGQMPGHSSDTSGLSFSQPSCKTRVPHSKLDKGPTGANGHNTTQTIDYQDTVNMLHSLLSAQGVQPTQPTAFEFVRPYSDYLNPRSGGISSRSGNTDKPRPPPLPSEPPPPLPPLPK

Compound | IC50 [1] | EC50 [2]
CS(=O)(=O)N1CCC(c2cc3c(-c4ccc5ncn(CC6CCOCC6)c5c4)ccnc3[nH]2)CC1 [Example 6, 6-{2-[1-(methylsulfonyl)piperidin-4-yl]-1H-pyrrolo[2,3-b]pyridin-4-yl}-1-(tetrahydro-2H-pyran-4-ylmethyl)-1H-benzimidazole] | 38 nM | 130 nM
c1cc(-c2ccc3ncn(CC4CCOCC4)c3n2)c2cc(C3CCNCC3)[nH]c2n1 [Example 7, 5-[2-(piperidin-4-yl)-1H-pyrrolo[2,3-b]pyridin-4-yl]-3-(tetrahydro-2H-pyran-4-ylmethyl)-3H-imidazo[4,5-b]pyridine] | 69 nM | 500 nM
OCC(O)CN1CCC(c2cc3c(-c4ccc5ncn(Cc6cncc(F)c6)c5c4)ccnc3[nH]2)CC1 (stereo not shown) [Example 17, 3-[4-(4-{1-[(5-fluoropyridin-3-yl)methyl]-1H-benzimidazol-6-yl}-1H-pyrrolo[2,3-b]pyridin-2-yl)piperidin-1-yl]propane-1,2-diol] | 66 nM | 120 nM
Fc1cc2ncn(CC3CCOCC3)c2cc1-c1ccnc2[nH]c(C3CCNCC3)cc12 [Example 18, 5-fluoro-6-[2-(piperidin-4-yl)-1H-pyrrolo[2,3-b]pyridin-4-yl]-1-(tetrahydro-2H-pyran-4-ylmethyl)-1H-benzimidazole] | 120 nM | 858 nM
CNC(=O)N1CCC(c2cc3c(-c4cc5c(cc4F)ncn5CC4CCOCC4)ccnc3[nH]2)CC1 [Example 20, 4-{4-[5-fluoro-1-(tetrahydro-2H-pyran-4-ylmethyl)-1H-benzimidazol-6-yl]-1H-pyrrolo[2,3-b]pyridin-2-yl}-N-methylpiperidine-1-carboxamide] | 160 nM | 1970 nM
N#Cc1cn(Cc2ccccc2)c2cc(-c3ncnc4[nH]c(C5=CCNCC5)cc34)ccc12 [Example 22, 1-benzyl-6-[6-(1,2,3,6-tetrahydropyridin-4-yl)-7H-pyrrolo[2,3-d]pyrimidin-4-yl]-1H-indole-3-carbonitrile] | 16 nM | 100 nM
CS(=O)(=O)N1CCC(c2cc3c(-c4cc5c(cc4F)ncn5CC4CCOCC4)ccnc3[nH]2)CC1 [Example 23, 5-fluoro-6-{2-[1-(methylsulfonyl)piperidin-4-yl]-1H-pyrrolo[2,3-b]pyridin-4-yl}-1-(tetrahydro-2H-pyran-4-ylmethyl)-1H-benzimidazole] | 55 nM | 550 nM
N#Cc1cn(CC2CCOCC2)c2cc(-c3ccnc4[nH]c(C5CCNCC5)cc34)cnc12 [Example 28, 6-[2-(piperidin-4-yl)-1H-pyrrolo[2,3-b]pyridin-4-yl]-1-(tetrahydro-2H-pyran-4-ylmethyl)-1H-pyrrolo[3,2-b]pyridine-3-carbonitrile] | 180 nM | > 10000 nM
Fc1cccc(CCn2nnc3ccc(-c4ccnc5[nH]c(C6CCNCC6)c(Cl)c45)cc32)c1 [Example 33, 6-[3-chloro-2-(piperidin-4-yl)-1H-pyrrolo[2,3-b]pyridin-4-yl]-1-[2-(3-fluorophenyl)ethyl]-1H-benzotriazole] | 18 nM | 1100 nM
C1=C(c2cc3c(-c4ccc5nnn(CC6CCOCC6)c5c4)ccnc3[nH]2)CCNC1 [Example 36, 1-(tetrahydro-2H-pyran-4-ylmethyl)-6-[2-(1,2,3,6-tetrahydropyridin-4-yl)-1H-pyrrolo[2,3-b]pyridin-4-yl]-1H-benzotriazole] | 59 nM | 450 nM
Fc1cncc(Cn2ccc3ncc(-c4ccnc5[nH]c(C6CCNCC6)cc45)cc32)c1 [Example 37, 1-[(5-fluoropyridin-3-yl)methyl]-6-[2-(piperidin-4-yl)-1H-pyrrolo[2,3-b]pyridin-4-yl]-1H-pyrrolo[3,2-b]pyridine] | 26 nM | 170 nM
O=C(CO)N1CC=C(c2cc3c(-c4ccc5nnn(CC6CCOCC6)c5c4)ccnc3[nH]2)CC1 [Example 38, 2-hydroxy-1-[4-{4-[1-(tetrahydro-2H-pyran-4-ylmethyl)-1H-benzotriazol-6-yl}-1H-pyrrolo[2,3-b]pyridin-2-yl]-3,6-dihydropyridin-1(2H)-yl]ethanone] | 62 nM | 440 nM
Fc1cccc(Cn2ccc3ncc(-c4ccnc5[nH]c(C6=CCNCC6)cc45)cc32)c1 [Example 40, 1-(3-fluorobenzyl)-6-[2-(1,2,3,6-tetrahydropyridin-4-yl)-1H-pyrrolo[2,3-b]pyridin-4-yl]-1H-pyrrolo[3,2-b]pyridine] | 17 nM | 53 nM
COC(=N)c1cn(Cc2cccc(F)c2)c2cc(-c3ccnc4[nH]c(C5CCNCC5)cc34)c(F)cc12 [Example 41, methyl 5-fluoro-1-(3-fluorobenzyl)-6-[2-(piperidin-4-yl)-1H-pyrrolo[2,3-b]pyridin-4-yl]-1H-indole-3-carboximidate] | 91 nM | 590 nM

Continued by falling IC50 [1], values first:

IC50 [1] | EC50 [2] | Compound
110 nM | 178 nM | CS(=O)(=O)N1CCC(c2cc3c(-c4ccc5c(C#N)cn(Cc6cccc(F)c6)c5c4)ccnc3[nH]2)CC1 [Example 11, 1-(3-fluorobenzyl)-6-{2-[1-(methylsulfonyl)piperidin-4-yl]-1H-pyrrolo[2,3-b]pyridin-4-yl}-1H-indole-3-carbonitrile]
100 nM | 1850 nM | O=C(CO)N1CCC(c2cc3c(-c4cc5c(cc4F)ncn5CC4CCOCC4)ccnc3[nH]2)CC1 [Example 21, 1-(4-{4-[5-fluoro-1-(tetrahydro-2H-pyran-4-ylmethyl)-1H-benzimidazol-6-yl}-1H-pyrrolo[2,3-b]pyridin-2-yl]piperidin-1-yl)-2-hydroxyethanone]
97 nM | 1110 nM | OCC(O)CN1CCC(c2cc3c(-c4cc5c(cc4F)ncn5CC4CCOCC4)ccnc3[nH]2)CC1 (stereo not shown) [Example 19, 3-(4-{4-[5-fluoro-1-(tetrahydro-2H-pyran-4-ylmethyl)-1H-benzimidazol-6-yl}-1H-pyrrolo[2,3-b]pyridin-2-yl]piperidin-1-yl)propane-1,2-diol]
94 nM | 180 nM | CNC(=O)N1CCC(c2cc3c(-c4ccc5ncn(Cc6cncc(F)c6)c5c4)ccnc3[nH]2)CC1 [Example 16, 4-(4-{1-[(5-fluoropyridin-3-yl)methyl]-1H-benzimidazol-6-yl}-1H-pyrrolo[2,3-b]pyridin-2-yl)-N-methylpiperidine-1-carboxamide]
85 nM | 6300 nM | c1cc(-c2cnc3ccn(CC4CCOCC4)c3c2)c2cc(C3CCNCC3)[nH]c2n1 [Example 30, 6-{2-(piperidin-4-yl)-1H-pyrrolo[2,3-b]pyridin-4-yl}-1-(tetrahydro-2H-pyran-4-ylmethyl)-1H-pyrrolo[3,2-b]pyridine]
74 nM | 200 nM | CS(=O)(=O)N1CC=C(c2cc3c(-c4ccc5nnn(CC6CCOCC6)c5c4)ccnc3[nH]2)CC1 [Example 39, 6-{2-[1-(methylsulfonyl)-1,2,3,6-tetrahydropyridin-4-yl]-1H-pyrrolo[2,3-b]pyridin-4-yl}-1-(tetrahydro-2H-pyran-4-ylmethyl)-1H-benzotriazole]
53 nM | 7000 nM | Clc1cc2ncn(CC3CCOCC3)c2cc1-c1ccnc2[nH]c(C3CCNCC3)cc12 [Example 27, 5-chloro-6-[2-(piperidin-4-yl)-1H-pyrrolo[2,3-b]pyridin-4-yl]-1-(tetrahydro-2H-pyran-4-ylmethyl)-1H-benzimidazole]
51 nM | 890 nM | Fc1cccc(CCn2nnc3ccc(-c4ccnc5[nH]c(C6CCNCC6)cc45)cc32)c1 [Example 32, 1-[2-(3-fluorophenyl)ethyl]-6-{2-(piperidin-4-yl)-1H-pyrrolo[2,3-b]pyridin-4-yl}-1H-benzotriazole]
30 nM |  | N#Cc1cn(Cc2ccccc2)c2cc(-c3ncnc4[nH]c(C5=CCN(CC(O)CO)CC5)cc34)ccc12 (stereo not shown) [Example 31, 1-benzyl-6-{6-[1-(2,3-dihydroxypropyl)-1,2,3,6-tetrahydropyridin-4-yl]-7H-pyrrolo[2,3-d]pyrimidin-4-yl}-1H-indole-3-carbonitrile]
17 nM | 130 nM | CS(=O)(=O)N1CCC(c2cc3c(-c4cnc5ccn(Cc6cccc(F)c6)c5c4)ccnc3[nH]2)CC1 [Example 34, 1-(3-fluorobenzyl)-6-{2-[1-(methylsulfonyl)piperidin-4-yl]-1H-pyrrolo[2,3-b]pyridin-4-yl}-1H-pyrrolo[3,2-b]pyridine]
13 nM | 200 nM | N#Cc1cn(Cc2cccc(F)c2)c2nc(-c3ccnc4[nH]c(C5CCNCC5)cc34)ccc12 [Example 35, 1′-(3-fluorobenzyl)-2-(piperidin-4-yl)-1H,1′H-4,6′-bipyrrolo[2,3-b]pyridine-3′-carbonitrile]
